Data published in the supplement of paper PMC10331698.
± gives the standard deviation of the averaged measurements.

What was measured:
Assay in all cases: level (log10 ratio to DMSO vehicle control); higher = higher biomarker level / cell amount than vehicle control
[1] = compound: C=C(C)C(=O)OCC(F)(F)C(F)(F)C(F)(F)F [2,2,3,3,4,4,4-Heptafluorobutyl methacrylate]; conditions: in DMSO
Description: (§1)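 BioMAP Diversity Plus panel of 12 human primary cell co-culture systems (3C, 4H, LPS, SAg, BT, BF4T, BE3C, CASM3C, HDF3CGF, KF3CT, MyoF, Mphg). Compounds were added 1 h before stimulation and left for 24 h (MyoF 48 h; BT 72 h for soluble read-outs or 6 d for IgG). Biomarkers were read by ELISA, cytotoxicity by SRB, PBMC viability and proliferation by Alamar Blue. Each well value was divided by the mean of 8 DMSO control wells on the same plate and log10 transformed; duplicate blinded samples were tested at 4 concentrations.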

[2] = compound: Cc1ccc(S(=O)(=O)OCC(F)(F)C(F)(F)C(F)(F)C(F)(F)C(F)(F)C(F)F)cc1 [1H,1H,7H-Perfluoroheptyl 4-methylbenzenesulfonate]; conditions: in DMSO
Description: as §1

[3] = compound: FC(F)(F)C(F)(F)C(F)(F)C(F)(F)CCI [1H,1H,2H,2H-Perfluorohexyl iodide]; conditions: in DMSO
Description: as §1

[4] = compound: O=C(Cl)C(F)(F)C(F)(F)C(F)(F)C(=O)Cl [Hexafluoroglutaryl chloride]; conditions: in DMSO
Description: as §1

[5] = compound: O=S(=O)(OCC(F)(F)F)C(F)(F)C(F)(F)C(F)(F)C(F)(F)F [2,2,2-Trifluoroethyl perfluorobutanesulfonate]; conditions: in DMSO
Description: as §1

[6] = compound: OCC(F)(F)C(F)(F)C(F)(F)C(F)(F)C(F)(F)C(F)(F)C(F)(F)C(F)(F)C(F)(F)C(F)(F)C(F)(F)F [11:1 Fluorotelomer alcohol]; conditions: in DMSO
Description: as §1

[7] = compound: OCCCC(F)(F)C(F)(F)C(F)(F)C(F)(F)C(F)(F)C(F)(F)C(F)(F)C(F)(F)F [3-(Perfluorooctyl)propanol]; conditions: 6700 nM; in DMSO
Description: as §1

Test System | level (log10) ([1]; 6700 nM) | level (log10) ([1]; 20000 nM) | level (log10) ([1]; 60000 nM) | level (log10) ([2]; 6700 nM) | level (log10) ([2]; 20000 nM) | level (log10) ([2]; 60000 nM) | level (log10) ([3]; 6700 nM) | level (log10) ([3]; 20000 nM) | level (log10) ([3]; 60000 nM) | level (log10) ([4]; 6700 nM) | level (log10) ([4]; 20000 nM) | level (log10) ([4]; 60000 nM) | level (log10) ([5]; 6700 nM) | level (log10) ([5]; 20000 nM) | level (log10) ([5]; 60000 nM) | level (log10) ([6]; 1100 nM) | level (log10) ([6]; 3300 nM) | level (log10) ([6]; 10000 nM) | level (log10) [7]
HDF3CGF:MMP-1 | 0 ± 0.023 | 0.0015 ± 0.0064 | -0.0005 ± 0.016 | 0.024 ± 0.0014 | 0.0535 ± 0.016 | 0.066 ± 0.0014 | -0.001 ± 0.0014 | 0.0085 ± 0.0035 | 0.0145 ± 0.018 | 0.0195 ± 0.012 | 0.013 ± 0.0042 | 0.018 | 0.0125 ± 0.0078 | 0.022 ± 0.0085 | 0.0405 ± 0.0092 | -0.011 ± 0.0057 | -0.042 ± 0.0014 | -0.0255 ± 0.035 | -0.0315 ± 0.044
MyoF:alpha-SM Actin | -0.0195 ± 0.0078 | -0.0025 ± 0.0035 | -0.002 ± 0.011 | -0.052 ± 0.011 | -0.0625 ± 0.022 | -0.0765 ± 0.019 | 0.03 ± 0.064 | 0.0325 ± 0.064 | 0.043 ± 0.034 | -0.0115 ± 0.018 | -0.0065 ± 0.057 | -0.0105 ± 0.035 | -0.0265 ± 0.025 | -0.0175 ± 0.047 | -0.0235 ± 0.005 | -0.0025 ± 0.015 | -0.0195 ± 0.03 | 0.0045 ± 0.018 | -0.0885 ± 0.061
MyoF:Collagen I | 0.0055 ± 0.013 | 0.001 ± 0.021 | 0.018 ± 0.027 | -0.001 ± 0.0028 | 0.019 ± 0.0099 | 0.001 ± 0.016 | -0.0005 ± 0.0035 | 0.0005 ± 0.022 | 0.0205 ± 0.042 | 0.004 ± 0.013 | -0.0005 ± 0.025 | 0.0145 ± 0.00071 | -0.0215 ± 0.0092 | -0.0045 ± 0.03 | -0.043 ± 0.023 | 0.051 ± 0.047 | 0.0475 ± 0.021 | 0.0435 ± 0.013 | -0.046 ± 0.024
HDF3CGF:TIMP-2 | -0.008 ± 0.0014 | -0.0105 ± 0.022 | -0.0245 ± 0.019 | -0.042 ± 0.081 | -0.101 ± 0.053 | -0.032 ± 0.035 | -0.0105 ± 0.013 | -0.023 ± 0.021 | -0.115 ± 0.0064 | -0.0215 ± 0.086 | -0.0155 ± 0.088 | -0.025 ± 0.075 | 0.0105 ± 0.013 | 0.0375 ± 0.021 | 0.06 ± 0.0014 | 0.001 ± 0.0042 | -0.045 ± 0.016 | -0.0325 ± 0.013 | 0.029 ± 0.013
KF3CT:CXCL9/MIG | 0.009 | 0 ± 0.0042 | 0.0005 ± 0.011 | -0.005 ± 0.014 | -0.0025 ± 0.012 | -0.008 ± 0.0057 | 0.004 ± 0.0099 | 0.0095 ± 0.011 | 0.0135 ± 0.033 | 0.0025 ± 0.011 | 0.0085 ± 0.011 | 0.008 ± 0.0085 | 0.023 ± 0.021 | 0.0095 ± 0.028 | 0.0015 ± 0.053 | 0.0015 ± 0.0035 | -0.004 | 0.005 ± 0.011 | -0.018 ± 0.0057
KF3CT:PAI-I | 0.005 ± 0.0099 | 0.008 ± 0.0014 | 0.014 | -0.016 ± 0.02 | 0.0005 ± 0.0078 | -0.032 ± 0.0042 | -0.0025 ± 0.023 | -0.001 ± 0.013 | -0.0225 ± 0.015 | -0.012 ± 0.028 | -0.0005 ± 0.0078 | -0.0055 ± 0.015 | 0.0005 ± 0.028 | 0.003 ± 0.033 | 0.0265 ± 0.018 | -0.002 ± 0.0071 | -0.0055 ± 0.012 | 0.001 ± 0.023 | -0.104 ± 0.077
3C:CD141/Thrombomodulin | -0.009 ± 0.0099 | -0.0145 ± 0.013 | 0.002 ± 0.0071 | 0.008 ± 0.0028 | 0.021 ± 0.0014 | 0.0395 ± 0.00071 | -0.041 ± 0.051 | -0.0175 ± 0.052 | 0.0165 ± 0.059 | -0.0455 ± 0.013 | -0.0275 ± 0.0078 | -0.056 ± 0.057 | -0.024 ± 0.018 | -0.041 ± 0.028 | -0.051 ± 0.016 | 0.0225 ± 0.021 | 0.0705 ± 0.00071 | 0.09 ± 0.02 | -0.0055 ± 0.019
MyoF:Decorin | 0.018 ± 0.014 | 0.0075 ± 0.005 | 0.022 ± 0.0014 | 0.0065 ± 0.033 | 0.0045 ± 0.025 | 0.073 ± 0.05 | 0.0085 ± 0.012 | 0.011 ± 0.025 | 0.024 ± 0.075 | -0.014 ± 0.016 | -0.0095 ± 0.026 | -0.006 ± 0.0099 | 0.0135 ± 0.066 | 0.027 ± 0.014 | 0.008 ± 0.052 | 0.0065 ± 0.028 | 0.013 ± 0.021 | 0.0255 ± 0.0021 | 0.0395 ± 0.033
3C:CD54/ICAM-1 | 0.002 ± 0.0028 | 0.007 ± 0.0042 | 0.0135 ± 0.005 | 0.0085 ± 0.0021 | -0.005 ± 0.0085 | -0.01 ± 0.02 | -0.01 ± 0.041 | -0.027 ± 0.025 | -0.009 ± 0.054 | 0.002 ± 0.0014 | -0.006 ± 0.013 | 0.0025 ± 0.035 | -0.006 ± 0.0028 | -0.0105 ± 0.0021 | -0.0095 ± 0.0064 | 0.011 ± 0.03 | 0.0305 ± 0.028 | 0.0385 ± 0.018 | 0.0095 ± 0.0064
KF3CT:CXCL10/IP-10 | 0.0055 ± 0.00071 | -0.001 ± 0.0057 | 0.0085 ± 0.005 | -0.009 ± 0.014 | -0.0195 ± 0.0078 | -0.016 ± 0.0099 | 0.012 ± 0.045 | 0.0205 ± 0.028 | 0.017 ± 0.05 | -0.0105 ± 0.013 | 0.0045 ± 0.0035 | -0.0025 ± 0.015 | 0.0345 ± 0.022 | 0.033 ± 0.041 | 0.031 ± 0.042 | 0.003 ± 0.0042 | -0.002 ± 0.0057 | 0.0085 ± 0.0035 | -0.053 ± 0.02
HDF3CGF:CD54/ICAM-1 | -0.008 ± 0.0071 | -0.013 ± 0.0071 | -0.007 ± 0.0099 | 0.0005 ± 0.016 | 0.0385 ± 0.042 | 0.026 ± 0.055 | -0.023 ± 0.013 | -0.0005 ± 0.005 | -0.0085 ± 0.016 | -0.0015 ± 0.0035 | -0.007 ± 0.0042 | -0.001 ± 0.0099 | -0.0105 ± 0.018 | -0.0025 ± 0.022 | -0.0285 ± 0.028 | 0.001 ± 0.0071 | -0.0075 ± 0.021 | -0.012 ± 0.0014 | -0.113 ± 0.15
KF3CT:SRB | 0.0025 ± 0.0021 | 0.0045 ± 0.011 | -0.0075 ± 0.00071 | -0.0215 ± 0.013 | -0.032 ± 0.011 | -0.0335 ± 0.0078 | -0.013 ± 0.0099 | -0.01 ± 0.013 | 0.0035 ± 0.015 | -0.0015 ± 0.005 | 0.005 ± 0.0014 | 0.0055 ± 0.0064 | -0.001 | -0.0045 ± 0.0021 | -0.0025 ± 0.0092 | -0.01 ± 0.0057 | -0.0285 ± 0.005 | -0.014 ± 0.0057 | -0.053
lMphg:CCL2/MCP-1 | -0.0335 ± 0.028 | -0.012 ± 0.0099 | -0.0115 ± 0.028 | -0.033 ± 0.0014 | -0.0345 ± 0.015 | -0.0055 ± 0.026 | -0.028 ± 0.042 | -0.0285 ± 0.0021 | 0.008 ± 0.013 | -0.005 ± 0.0099 | -0.0025 ± 0.019 | 0.0125 ± 0.015 | -0.0115 ± 0.021 | -0.0245 ± 0.022 | -0.0405 ± 0.0035 | 0.0125 ± 0.0078 | 0.0295 ± 0.035 | 0.0535 ± 0.0021 | 0.0035 ± 0.016
